Experimental data taken from patent US20210145964A1, “STROMA-TARGETING TREATMENT FOR PATIENTS WITH ELEVATED ADAM12 LEVELS” (Academisch Medisch Centrum, priority 2019, published 2021).

Test system: metastatic adenocarcinoma of the pancreas
Assay: MPACT phase III trial, overall survival by plasma ADAM12 group
Conditions: poorest-outcome group: ADAM12 became detectable or increased at cycle 2
Experimental: In the MPACT trial cohort, collection of plasma samples for biomarker development was optional and separate written consent was obtained for sample collection and biomarker analysis. […] All patients provided informed consent. […] Patients were randomized 1:1 (stratified by performance status, presence of liver metastases, and region) to receive nab-paclitaxel 125 mg/m^2 plus gemcitabine 1,000 mg/m^2 on days 1, 8, and 15 every 28 days or gemcitabine alone 1,000 mg/m^2 on days 1, 8, 15, 22, 29, 36, and 43 in 56 days (cycle 1) and then on days 1, 8, and 15 every 28 days (cycle≥2). Treatment continued until disease progression or unacceptable toxicity.
MPACT trial blood samples were collected in EDTA tubes to chelate calcium and prevent blood clotting, and storage at −80° C. until analysis. To allow the analysis of these plasma samples using the ADAM12 DuoSet ELISA, recalcification was required. […]
For the MPACT cohort, baseline ADAM12 values were categorized into undetectable (0) and detectable (>0). The fold change of ADAM12 at cycle 2, day 1 (C2D1) from baseline (cycle 1, day 1; C1D1) was calculated by the results at C2D1 divided by the value at C1D1. […] All eligible samples were measured and no power calculation was performed. Overall survival was analyzed using Kaplan-Meier method and log-rank test. […]

Nc1ccn([C@@H]2O[C@H](CO)[C@@H](O)C2(F)F)c(=O)n1 [gemcitabine]
overall survival: 6.9 months
